# Read-outs that look alike come from different tables or passages of the source.
# What was measured:
# Format in all cases: in vivo, human
# [1] = Exercise and energy in elderly subjects
# [2] = test system: A/H1N1/California/07/2009; assay: Anti-influenza IgG and IgM levels in serum; conditions: 4 weeks after influenza vaccination
# Experimental: The trial was observer-blind because the placebo in the RAD001 0.5 mg daily and 20 mg weekly cohorts differed slightly from the RAD001 tablets in those cohorts. […] The treatment duration for all cohorts was 6 weeks during which time subjects underwent safety evaluations in the clinic every 2 weeks. After subjects had been dosed for 4 weeks, RAD001 steady state levels were measured pre-dose and at one hour post dose. […] Antibody titers to the 3 influenza vaccine strains as well as to 2 heterologous strains (A/H1N1 strain A/New Jersy/8/76 and A/H3N2 strain A/Victoria/361/11) were measured by standard hemagglutination inhibition assay (Kendal, A P et al. (1982) Concepts and procedures for laboratory-based influenza surveillance. Atlanta: Centers for Disease Control and Prevention B17-B35). Levels of IgG and IgM specific for the A/H1N1/California/07/2009 were measured in serum samples taken before and 4 weeks after influenza vaccination as described previously (Spensieri, F. et al. (2013) Proc. Natl. Acad. Sci. USA 110:14330-14335). Results were expressed as fluorescence intensity.
# [3] = test system: A/H1N1 strain A/New Jersey/8/76; conditions: 4 weeks after seasonal influenza vaccination
structure (smiles),measurement,setting,value
"CO[C@H]1C[C@@H]2CC[C@@H](C)[C@@](O)(O2)C(=O)C(=O)N2CCCC[C@H]2C(=O)O[C@H]([C@H](C)C[C@@H]2CC[C@@H](OCCO)[C@H](OC)C2)CC(=O)[C@H](C)/C=C(\C)[C@@H](O)[C@@H](OC)C(=O)[C@H](C)C[C@H](C)/C=C/C=C/C=C/1C [RAD001, (1R,9S,12S,15R,16E,18R,19R,21R,23S,24E,26E,28E,30S,32S,35R)-1,18-dihydroxy-12-{(1R)-2-[(1S,3R,4R)-4-(2-hydroxyethoxy)-3-methoxycyclohexyl]-1-methylethyl}-19,30-dimethoxy-15,17,21,23,29,35-hexamethyl-11,36-dioxa-4-azatricyclo[30.3.1.0^4,9]hexatriaconta-16,24,26,28-tetraene-2,3,10,14,20-pentaone]",exercise and energy,[1],increases in exercise and energy
same,"post-vaccination anti-influenza IgM and IgG levels, RAD001 versus placebo",[2],did not differ
same,Percentage of subjects who seroconvert to heterologous strain A/H1N1 A/NewJersey/8/76,[3]; RAD001 5 mg weekly,16%
same,Percentage of subjects who seroconvert to heterologous strain A/H1N1 A/NewJersey/8/76,[3]; RAD001 20 mg weekly,8%
